Values joined by “and” are separate entries in the source; they are usually repeats but may differ in a detail not shown here. Equal entries are not always repeated. Where two headings read alike, the source gives them in different places.

Assay [1] has as its target GluN2A-containing receptors. The following applies: cited from earlier work.
The subject of another assay is GluN2A-Lys738Met. Further details: method as in PMID 24462099. The following applies: cited from earlier work.
Another assay concerns the target T1, GluN1-4a/GluN2D NMDARs (Rattus norvegicus, UniProt P35439+Q62645).
T1 construct: expressed in transfected cells; host or cells: Xenopus laevis oocytes injected with cRNA
Kind of assay: TEVC electrophysiology on Xenopus laevis oocytes expressing GluN1-4a/GluN2D. The assay is classed as cell-based. The source says:
(§1) The chemical definition of UBP791 used in this study is a cis-racemic mixture of (2S,3R)- and (2R,3S)-isomers.
(§2) Plasmids (pSP or pCI_NEO) harboring rat GluN1 or GluN2 full-length subunits were linearized by restriction digestion and transcribed according to the manufacturer’s instructions (mMESSAGE mMachine SP6 or T7 kit, ThermoFisher Scientific). Recombinant rat GluN1-4a and GluN2 were expressed by co-injecting cRNA at a 1:2 (w/w) ratio into defolliculated X. laevis oocytes (amounts varied from 0.05–25 ng per oocyte). Two-electrode voltage-clamp recordings were performed 1–3 days after injection using agarose-tipped microelectrodes (0.4–1.2 MΩ) filled with 3 M KCl at a holding potential of −60 mV. The bath solution contained 5 mM HEPES, 100 mM NaCl, 0.3 mM BaCl2, 10 mM Tricine, at pH 7.4 (adjusted with KOH). […] For the statistical evaluation, we implemented pairwise F-tests to test variances, and then performed the Student t test with equal or unequal variances as determined previously, and accounted for multiple testing with the Bonferroni correction.

Another assay concerns the target GluA1 (Homo sapiens, UniProt P42261). Kind of assay: Glutamate-stimulated Ca2+-influx fluorescence assay in HEK293 cells, GluA1. The class given is cell-based. The following applies: for IC50: HEK293 cells, glutamate-stimulated Ca2+-influx. The protocol:
(§3) HEK293 cell lines stably expressing homomeric glutamate receptors (GluA1, GluK1 and GluK2) were obtained from Eli Lilly and grown in DMEM (ThermoFisher) supplemented with 10% v/v fetal bovine serum (Sigma), 2 mM Glutamax™ (Gibco), 100 U/mL penicillin, 100 µg streptomycin and 250 ng amphotericin B (Sigma) in 5% CO2 at 37 °C. Cells were passaged using TrypLE (Gibco) as required before confluency and periodically treated with selection antibiotics (GluK1, GluK2 hygromycin B, 200 µg/mL; GluA1 geneticin™, 200 µg/mL).
(§4) Calcium influx fluorescence assay
(§5) 100k cells/well were seeded into a 96-well plate precoated with poly-L-lysine and incubated for 12-16 hours until fully confluent. The cell monolayer was washed twice with 100 µL Hanks Balanced Salt Solution supplemented with 5 mM CaCl2 and 20 mM HEPES (sHBSS), then incubated for 2-4 hours with 100 µL working solution of Ca6 dye (Molecular Devices) supplemented with a desensitization blocker (GluK1, GluK2 0.25 mg/mL concanavalin A, Sigma; GluA1 100 µM cyclothiazide, Sigma). The time resolved fluorescence was recorded in a Flexstation 3 instrument (Molecular Devices). For each individual reading, the initial fluorescence of the well was measured for 20 seconds, after which the desired concentration of […]
(§6) response is measured as the peak change in fluorescence upon addition of agonist. The viability of the cells was confirmed by determination of the concentration-response curve to the L-glutamate agonist and a standard antagonist for each plate. Readings of antagonists used the […]
(§7) Fluorescence traces were performed in […]
(§8) triplicate on each plate and Ki values were determined on a plate-by-plate basis. Separate experiments (n) were performed on different passages of cells. […]

For the next assay, the target named is GluK2 (Homo sapiens, UniProt Q13002). Kind of assay: Glutamate-stimulated Ca2+-influx fluorescence assay in HEK293 cells, GluK2. The class given is cell-based. The following applies: for IC50: HEK293 cells, glutamate-stimulated Ca2+-influx. The protocol: as §3, §4, §5, §6, §7, §8
Assay [2] deals with T2, GluN1-4a/GluN2A NMDARs (Rattus norvegicus, UniProt P35439+Q00959).
T2 construct: expressed in transfected cells; host or cells: Xenopus laevis oocytes injected with cRNA
The assay is described as follows: TEVC electrophysiology on Xenopus laevis oocytes expressing GluN1-4a/GluN2A. The class given is cell-based. The note with it: Cheng–Prusoff from IC50 and L-glutamate EC50; 100 μM glycine, 1 or 3 μM L-glutamate.
Description: as §1, §2

Assay [3] concerns the target T3, GluN1-4a/GluN2A NMDARs (Rattus norvegicus, UniProt Q00959).
T3 construct: expressed in transfected cells; host or cells: Xenopus laevis oocytes injected with cRNA
The description is as above. The class given is cell-based. The note with it: Ki GluN2A relative to Ki GluN2D (WT).
Description: as §1, §2

In assay [4] the test system is GluN2C/2D-containing NMDARs. The following applies: cited from earlier work; for GluN2C/2D preference over GluN2A/2B: allosteric inhibitors.
Another assay has as its system GluN2D. Also noted: method as in Swanger et al., 2017. The note with it: GluN2D expressed in mammalian cells; ref Swanger et al., 2017; cited from earlier work.
The target in assay [5] is GluN2D-containing receptors. The following applies: cited from earlier work.
Assay [6] deals with GluN2C-containing receptors. The following applies: cited from earlier work.
Another assay concerns GluN2A/2C-triheteromers. Further details: method as in Swanger et al, 2017. The note with it: oocyte-based system; ref Swanger et al, 2017; cited from earlier work.
In assay [7] the test system is GluN1/GluN2B/GluN2D triheteromers. Also noted: method as in Brothwell et al., 2008; Suárez et al., 2010. The following applies: substantia nigra pars compacta; ref Brothwell et al., 2008; Suárez et al., 2010; cited from earlier work.
For another assay, the target named is GluK1. Also noted: method as in PMID 24462099. The note with it: cited from earlier work.
The target of a further assay is GluA2. Also noted: method as in PMID 24462099. The following applies: cited from earlier work.
The target of assay [8] is GluN2B-containing receptors. Also noted: method as in earlier work. The following applies: TEVC; ref 1-3 (supplementary references); cited from earlier work.
Assay [9] concerns GluN1/GluN2B/GluN2D triheteromers. Also noted: method as in Volianskis et al., 2013. The following applies: hippocampus, at concentrations selective for GluN2D; ref Volianskis et al., 2013; cited from earlier work.
The test system of assay [10] is tPA-promoted neurotoxicity. Further details: method as in Jullienne et al, 2011. The note with it: given i.v.; only active where the blood brain barrier was compromised; ref Jullienne et al, 2011; cited from earlier work.
Assay [11] concerns the target T4, GluN1-4a/GluN2D Met763Lys/Lys766Arg NMDARs (Rattus norvegicus, UniProt P35439+Q62645, K766R/M763K).
T4 construct: expressed in transfected cells; host or cells: Xenopus laevis oocytes injected with cRNA
Kind of assay: TEVC electrophysiology on oocytes expressing GluN1-4a/GluN2D Met763Lys/Lys766Arg. The assay is classed as cell-based.
Description: (§9) To test the validity of the structural observation for the critical involvement of the methionine/lysine residue combination (GluN2D-Met763/Lys766, and GluN2A-4m-Met738/Lys741) in preferential binding of UBP791 to GluN2D over GluN2A, we conducted site-directed mutagenesis and assessed inhibition potencies of the mutant channels by TEVC. Specifically, we converted the GluN2D residues to the equivalent ones in the GluN2A subunit and measured macroscopic currents of the GluN1-4a/GluN2D mutant NMDARs.
as §2

Assay [12] concerns the target T5, GluN1-4a/GluN2D Lys766Arg NMDARs (Rattus norvegicus, UniProt P35439+Q62645, K766R).
T5 construct: expressed in transfected cells; host or cells: Xenopus laevis oocytes injected with cRNA
Kind of assay: TEVC electrophysiology on oocytes expressing GluN1-4a/GluN2D Lys766Arg. The class given is cell-based.
Description: as §9, §2

Assay [13] concerns the target T6, GluN1-4a/GluN2D Met763Lys NMDARs (Rattus norvegicus, UniProt P35439+Q62645, M763K).
T6 construct: expressed in transfected cells; host or cells: Xenopus laevis oocytes injected with cRNA
The assay is described as follows: TEVC electrophysiology on oocytes expressing GluN1-4a/GluN2D Met763Lys. The assay is classed as cell-based.
Description: as §9, §2

The mark [14] stands for this setting: normalized response at 30 µM compound.
The mark [15] stands for this setting: normalized response at 100 µM compound.
[16] abbreviates: TEVC, ref 1-3 (supplementary references).

GluK2, sequence (Q13002 32-908): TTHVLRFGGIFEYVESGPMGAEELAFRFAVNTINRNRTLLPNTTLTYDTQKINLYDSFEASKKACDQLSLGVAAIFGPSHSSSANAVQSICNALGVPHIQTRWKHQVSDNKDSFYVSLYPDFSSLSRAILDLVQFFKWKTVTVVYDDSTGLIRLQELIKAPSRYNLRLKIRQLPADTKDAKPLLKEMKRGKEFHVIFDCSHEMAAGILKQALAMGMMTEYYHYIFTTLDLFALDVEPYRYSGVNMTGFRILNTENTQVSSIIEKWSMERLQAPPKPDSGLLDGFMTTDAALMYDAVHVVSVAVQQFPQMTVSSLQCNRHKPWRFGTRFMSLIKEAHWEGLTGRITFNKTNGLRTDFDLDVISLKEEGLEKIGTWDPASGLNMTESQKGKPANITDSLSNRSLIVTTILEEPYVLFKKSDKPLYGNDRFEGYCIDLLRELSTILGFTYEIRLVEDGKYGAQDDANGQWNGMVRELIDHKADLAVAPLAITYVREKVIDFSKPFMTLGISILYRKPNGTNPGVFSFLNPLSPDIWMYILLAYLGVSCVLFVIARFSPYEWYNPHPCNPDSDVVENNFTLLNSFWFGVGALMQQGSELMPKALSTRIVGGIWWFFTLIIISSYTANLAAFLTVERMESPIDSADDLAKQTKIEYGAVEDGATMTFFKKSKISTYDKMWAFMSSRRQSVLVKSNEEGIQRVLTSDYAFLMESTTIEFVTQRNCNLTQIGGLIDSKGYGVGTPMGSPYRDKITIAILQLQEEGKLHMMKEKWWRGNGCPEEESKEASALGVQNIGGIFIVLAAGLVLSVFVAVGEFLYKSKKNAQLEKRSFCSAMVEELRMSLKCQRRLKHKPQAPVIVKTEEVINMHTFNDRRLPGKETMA
T1 sequence (Q62645 28-1323, other chains not shown): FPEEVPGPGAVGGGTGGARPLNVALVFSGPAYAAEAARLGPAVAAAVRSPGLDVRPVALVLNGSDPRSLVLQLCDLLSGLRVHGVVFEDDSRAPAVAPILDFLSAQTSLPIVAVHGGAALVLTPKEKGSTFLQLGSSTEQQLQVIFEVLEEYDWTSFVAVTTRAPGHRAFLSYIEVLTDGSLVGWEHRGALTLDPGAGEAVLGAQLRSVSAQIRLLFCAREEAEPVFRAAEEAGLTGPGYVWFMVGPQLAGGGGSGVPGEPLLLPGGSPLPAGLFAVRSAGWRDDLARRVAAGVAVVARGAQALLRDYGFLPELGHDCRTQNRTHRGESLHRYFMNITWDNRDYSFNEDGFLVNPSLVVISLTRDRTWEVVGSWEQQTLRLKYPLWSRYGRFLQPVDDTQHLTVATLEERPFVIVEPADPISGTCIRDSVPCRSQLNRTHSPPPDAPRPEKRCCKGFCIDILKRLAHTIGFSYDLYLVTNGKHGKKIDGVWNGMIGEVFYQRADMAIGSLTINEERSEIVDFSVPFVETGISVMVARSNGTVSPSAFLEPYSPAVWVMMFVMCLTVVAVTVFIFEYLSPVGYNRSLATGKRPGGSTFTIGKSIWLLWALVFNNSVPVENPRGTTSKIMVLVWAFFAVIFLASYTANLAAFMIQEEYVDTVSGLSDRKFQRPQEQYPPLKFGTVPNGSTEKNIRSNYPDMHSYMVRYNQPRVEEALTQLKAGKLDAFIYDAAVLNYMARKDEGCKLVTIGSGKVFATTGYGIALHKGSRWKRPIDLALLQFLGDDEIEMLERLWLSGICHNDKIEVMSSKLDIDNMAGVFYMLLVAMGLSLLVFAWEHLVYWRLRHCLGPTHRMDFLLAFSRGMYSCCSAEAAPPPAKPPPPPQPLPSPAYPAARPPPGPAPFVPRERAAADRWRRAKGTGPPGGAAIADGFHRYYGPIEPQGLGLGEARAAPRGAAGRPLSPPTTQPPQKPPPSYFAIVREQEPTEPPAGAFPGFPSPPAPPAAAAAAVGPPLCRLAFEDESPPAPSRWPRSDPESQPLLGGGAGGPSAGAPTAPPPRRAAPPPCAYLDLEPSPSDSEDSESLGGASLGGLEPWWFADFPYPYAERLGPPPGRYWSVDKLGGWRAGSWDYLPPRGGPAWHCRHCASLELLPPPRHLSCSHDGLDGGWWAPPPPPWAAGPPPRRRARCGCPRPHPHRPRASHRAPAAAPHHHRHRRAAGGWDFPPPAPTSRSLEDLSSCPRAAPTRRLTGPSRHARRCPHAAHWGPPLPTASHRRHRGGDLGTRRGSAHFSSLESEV
GluA1, sequence (P42261 19-906): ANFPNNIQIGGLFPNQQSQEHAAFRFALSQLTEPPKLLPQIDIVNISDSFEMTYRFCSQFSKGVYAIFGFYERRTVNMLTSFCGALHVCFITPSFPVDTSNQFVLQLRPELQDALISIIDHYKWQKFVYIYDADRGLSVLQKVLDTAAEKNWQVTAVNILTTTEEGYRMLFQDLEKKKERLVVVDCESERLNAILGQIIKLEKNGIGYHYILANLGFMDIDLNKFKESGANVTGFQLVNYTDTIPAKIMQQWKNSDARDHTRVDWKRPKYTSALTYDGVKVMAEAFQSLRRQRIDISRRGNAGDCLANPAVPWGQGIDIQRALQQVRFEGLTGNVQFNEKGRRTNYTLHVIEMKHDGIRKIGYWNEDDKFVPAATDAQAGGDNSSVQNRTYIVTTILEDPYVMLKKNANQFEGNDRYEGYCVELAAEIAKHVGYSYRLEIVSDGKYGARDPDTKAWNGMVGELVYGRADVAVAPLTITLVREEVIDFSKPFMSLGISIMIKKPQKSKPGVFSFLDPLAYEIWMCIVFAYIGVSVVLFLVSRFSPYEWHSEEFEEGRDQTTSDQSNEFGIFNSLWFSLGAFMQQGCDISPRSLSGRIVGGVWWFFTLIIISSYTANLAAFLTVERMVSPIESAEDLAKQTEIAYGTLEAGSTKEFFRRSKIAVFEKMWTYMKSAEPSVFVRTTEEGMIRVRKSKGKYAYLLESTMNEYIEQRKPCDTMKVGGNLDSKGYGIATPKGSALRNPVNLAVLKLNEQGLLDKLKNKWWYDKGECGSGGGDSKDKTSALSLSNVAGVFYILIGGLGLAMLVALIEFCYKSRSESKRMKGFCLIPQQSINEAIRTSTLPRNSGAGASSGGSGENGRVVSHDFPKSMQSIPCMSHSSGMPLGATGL
T3 sequence (Q00959 23-1464, other chains not shown): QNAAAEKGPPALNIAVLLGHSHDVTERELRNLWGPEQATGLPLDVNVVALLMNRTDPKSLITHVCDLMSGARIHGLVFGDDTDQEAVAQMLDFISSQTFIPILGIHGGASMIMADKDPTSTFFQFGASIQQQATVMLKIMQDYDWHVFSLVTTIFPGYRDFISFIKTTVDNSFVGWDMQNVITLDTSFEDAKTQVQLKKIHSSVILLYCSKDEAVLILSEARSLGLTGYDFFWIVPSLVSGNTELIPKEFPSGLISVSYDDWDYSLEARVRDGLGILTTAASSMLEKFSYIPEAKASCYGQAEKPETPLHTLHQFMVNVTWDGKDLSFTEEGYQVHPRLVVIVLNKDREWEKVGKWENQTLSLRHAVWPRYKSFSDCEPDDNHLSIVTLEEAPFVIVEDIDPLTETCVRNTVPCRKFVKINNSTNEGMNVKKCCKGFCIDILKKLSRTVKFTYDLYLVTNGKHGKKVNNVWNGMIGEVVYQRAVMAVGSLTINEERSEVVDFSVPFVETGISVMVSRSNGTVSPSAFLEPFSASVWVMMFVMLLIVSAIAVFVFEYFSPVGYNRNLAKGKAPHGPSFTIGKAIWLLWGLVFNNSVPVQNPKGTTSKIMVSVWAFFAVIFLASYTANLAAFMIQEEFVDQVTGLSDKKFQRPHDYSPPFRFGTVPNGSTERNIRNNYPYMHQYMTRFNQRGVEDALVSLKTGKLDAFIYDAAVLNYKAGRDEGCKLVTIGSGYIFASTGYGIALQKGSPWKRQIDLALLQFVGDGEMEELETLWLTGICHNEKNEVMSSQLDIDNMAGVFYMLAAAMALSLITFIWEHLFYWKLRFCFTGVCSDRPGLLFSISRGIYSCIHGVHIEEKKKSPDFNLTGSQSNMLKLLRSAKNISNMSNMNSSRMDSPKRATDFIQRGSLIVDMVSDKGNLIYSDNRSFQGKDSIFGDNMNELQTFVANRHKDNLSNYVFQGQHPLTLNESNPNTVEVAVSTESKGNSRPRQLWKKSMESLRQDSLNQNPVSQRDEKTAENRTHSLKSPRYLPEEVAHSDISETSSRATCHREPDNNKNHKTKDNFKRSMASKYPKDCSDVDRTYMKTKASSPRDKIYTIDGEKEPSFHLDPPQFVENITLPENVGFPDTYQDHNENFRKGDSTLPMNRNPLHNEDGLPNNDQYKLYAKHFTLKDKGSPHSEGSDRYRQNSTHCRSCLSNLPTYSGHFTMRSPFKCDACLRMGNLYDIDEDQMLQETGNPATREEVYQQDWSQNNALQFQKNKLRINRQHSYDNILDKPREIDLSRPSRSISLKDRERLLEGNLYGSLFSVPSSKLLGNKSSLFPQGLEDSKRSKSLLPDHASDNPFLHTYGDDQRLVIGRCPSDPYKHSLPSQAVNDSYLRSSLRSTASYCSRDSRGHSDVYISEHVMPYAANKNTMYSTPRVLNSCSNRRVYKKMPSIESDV
T4 sequence (Q62645 28-1323 M763K/K766R, other chains not shown): as the sequence (Q62645 28-1323, other chains not shown) above, with M736K, K739R counted along it
T5 sequence (Q62645 28-1323 K766R, other chains not shown): as the sequence (Q62645 28-1323, other chains not shown) above, with K739R counted along it
T6 sequence (Q62645 28-1323 M763K, other chains not shown): as the sequence (Q62645 28-1323, other chains not shown) above, with M736K counted along it

With `O=C(O)[C@@H]1[C@H](C(=O)O)NCCN1C(=O)c1ccc2c(ccc3ccccc32)c1` (relative stereo) [PPDA, (2S*,3R*)-1-(phenanthrene-2-carbonyl)piperazine-2,3-dicarboxylic acid], the Ki in [1] (GluN2A, PPDA values ref 27) was about 0.5 µM. Also, the “increase of potency compared with the WT GluN2A” value in the assay with GluN2A-Lys738Met is reported as “fivefold”.

As to `CC(Cc1ccc2c(ccc3cc(C(=O)N4CCN[C@H](C(=O)O)[C@@H]4C(=O)O)ccc32)c1)C(=O)O` (some centres unmarked) [UBP1701], the Ki at GluN1-4a/GluN2D NMDARs (Ki, Cheng–Prusoff from IC50 and L-glutamate EC50, 100 μM glycine, 1 or 3 μM L-glutamate) worked out at 0.1 ± 0.01 µM; on GluN1-4a/GluN2A NMDARs [2], 4.49 ± 0.46 µM. In addition, the IC50 against GluA1 and at GluK2 was over 100 µM in each case. In addition, the “Mean Response” value on GluA1 (setting [14]) turned out to be 92.5%; on GluA1 (setting [15]) it was 91.6%; at GluK2 (setting [14]), 96.9%; at GluK2 (setting [15]), 96.1%. The “fold difference of Ki vs. 2D (GluN2A)” value at GluN1-4a/GluN2A NMDARs [3] is ~ 45 fold.

Turning to `Cc1ccc2[nH]c(=O)c(C3=NN(C(=O)CCC(=O)O)C(c4ccc(Br)cc4)C3)c(-c3ccccc3)c2c1` (centres unmarked) [DQP-1105], the “GluN2C/2D preference over GluN2A/2B” value in assay [4] is reported as ~ 50 fold.

`CCN(CC)C(=O)Oc1ccc(C(=O)Nc2cccc3cc[nH]c23)cc1` [NAB-14]: the IC50 with GluN2D was 0.58 µM and 0.584 µM; in [5] (GluN2D expressed in Xenopus oocytes, ref Swanger et al., 2017) it was 2.2 µM; in assay [6] (GluN2C-diheteromers, oocyte-based system, ref Swanger et al, 2017), 5 µM; with GluN2A/2C-triheteromers it was about 15 µM. For the same compound, the “GluN2C/2D preference over GluN2A/2B” value in [4] is recorded as “about 800 fold”. Moreover, the “selectivity for recombinant GluN2C/GluN2D over GluN2A/GluN2B” value in assay [4] (reviewer's statement in peer review file, ref Swanger A. et al (2007)) is given as over 800 fold.

Regarding `O=C(O)[C@H]1NCCN(C(=O)c2ccc3ccc4ccccc4c3c2)[C@H]1C(=O)O` (relative stereo) [UBP141, (2R*,3S*)-1-(phenanthrene-3-carbonyl)piperazine-2,3-dicarboxylic acid], in assay [7], the inhibition of triheteromers result was “inhibits”. The GluN2C/2D selectivity result in assay [4] is on record as “up to approximately tenfold”.

As for `O=C(O)C1NCCN(C(=O)c2ccc3c(ccc4ccccc43)c2)C1C(=O)O` [(2S,3R)-PPDA], the values for the Ki on GluK1 and at GluA2 were 1.17 µM and 7.85 µM, respectively. The “fold higher potency compared to the (+)-isomer” value in assay [4] (GluN2C and GluN2D-containing NMDARs, ref Irvine et al, 2012) is reported as ~ 50 fold; in assay [5] (GluN2D-containing NMDARs, ref Jespersen et al, 2014), 7 fold. The “potency of (2S,3R)-PPDA compared with (2R,3S)-PPDA” value in assay [4] is on record as “approximately tenfold higher potency”. The “fold higher potency than the racemate” value in assay [4] (on GluN2C and GluN2D, ref 29 (Irvine et al., 2012)) is “about 1.4 fold”.

Turning to `O=C(O)Cc1cccnc1C(=O)O` [HQA, homoquinolinic acid], the concentration for a half-maximal effect (EC50) is 10 to 20 µM in assay [1] (setting [16]), 30 to 90 µM in assay [5] (setting [16]), 30 to 90 µM in assay [6] (setting [16]) and 10 to 20 µM in assay [8].

Take `O=C(O)CCCCc1ccc2c(ccc3cc(C(=O)N4CCNC(C(=O)O)C4C(=O)O)ccc32)c1` (centres unmarked) [UBP1702]: the Ki came to 0.13 ± 0.01 µM at GluN1-4a/GluN2D NMDARs (read-out: Ki) and 6.75 ± 0.75 µM on GluN1-4a/GluN2A NMDARs [2]. The IC50 at GluA1 and at GluK2 was over 100 µM each time. Besides, the “Mean Response” value worked out at 86.5% at GluA1 (setting [14]), 97.4% on GluA1 (setting [15]), 94.5% on GluK2 (setting [14]) and 96.0% at GluK2 (setting [15]). Moreover, the “fold difference of Ki vs. 2D (GluN2A)” value at GluN1-4a/GluN2A NMDARs [3] is listed as ~ 52 fold.

As for `O=C(O)[C@H]1NCCN(C(=O)c2ccc3cc(Br)c4ccccc4c3c2)[C@H]1C(=O)O` (relative stereo) [UBP145, (2R*,3S*)-1-(9-bromophenanthrene-3-carbonyl)piperazine-2,3-dicarboxylic acid], the block of triheteromers result in assay [9] was “blocks”. Further, the GluN2C/2D selectivity entry in assay [4] was “up to approximately tenfold”. The “effect on tPA neurotoxicity” value in assay [10] is reported as “blocked neurotoxicity of co-applied tissue plasminogen activator (tPA)”.

Regarding `N[C@@H](CCC(=O)O)C(=O)O` [L-glutamate, reference compound], the EC50 at GluN1-4a/GluN2D NMDARs amounted to 0.17 ± 0.01 µM; in [11] it was 0.17 ± 0.02 µM; in assay [12], 0.13 ± 0.02 µM; in assay [13] it was 0.27 ± 0.02 µM.

Turning to `COc1ccc2nc(/C=C/c3cccc([N+](=O)[O-])c3)n(-c3ccc(C(=O)O)cc3)c(=O)c2c1` [QNZ46], the “GluN2C/2D preference over GluN2A/2B” value in [4] is listed as ~ 50 fold.

The values are drawn from PMC6976569, “Structural basis of subtype-selective competitive antagonism for GluN2C/2D-containing NMDA receptors” (Nature Communications, 2020).
